Counter-ions that a name gives are not always drawn.

These results are taken from patent US20080161366A1, “AMINOALKYL SUBSTITUTED ARYL SULFAMIDE DERIVATIVES AND METHODS OF THEIR USE” (Wyeth, priority 2006, published 2008).

A short description of data set [1]: Rat liver microsomal stability assay. It counts as in vitro ADME. Conditions: rat liver microsomes, 37° C., NADPH; for half-life at 1 µM: pH 7.4, read-out: RLM stability t1/2. In general terms: Liver microsomes are vesicles of endoplasmic reticulum, rich in cytochrome P450 enzymes.
Data set [2] has as its target Dopamine Transporter (hDAT) (Homo sapiens, UniProt Q01959). Briefly: Dopamine transporter (hDAT) membrane binding assay, [3H]-WIN 35,428.
The target of data set [3] is T1, human norepinephrine transporter (hNET) (Homo sapiens, UniProt P23975). The experiment in a line: hNET uptake, Protocol B: cell based norepinephrine reuptake assay using recombinant hNET (MDCK-Net6 cells).
The target in data set [4] is T1, human norepinephrine transporter (hNET). The experiment in a line: hNET uptake, Protocol A: inhibition of [3H] NE uptake into cloned human NE transporters (MDCK cells). It counts as cell-based. The following applies: for IC50: MDCK cells expressing hNET, [3H] NE 16 nM; for inhibition at 2 µM: MDCK, read-out: NE uptake (Protocol A) % inh. @ 2 uM. The arrangement: expressed in transfected cells; host or cells: MDCK-Net6 cells. The procedure: hNET Assay Procedure Protocol A: Inhibition of [^3H] NE Uptake into Cloned Human NE Transporters (MDCK Cells) (“hNET uptake”)
[^3H] […] Cells were seeded at 300,000/T75 flask, and split twice weekly.
All uptake experiments were performed in 96-well plates (Falcon Optilux, cat #353947) in a total volume of 250 μl/well. MDCK cells were plated at 50,000 cells/well. […] 25 μl of each test compound was subsequently added to plates in triplicate and incubated at 37° C. for 5 minutes. All test compounds were dissolved in 100% DMSO and diluted in 4% DMSO/H2O, and assayed using a 7-point dose response curve (1 nM-10 μM). Next, 25 μl of [^3H] NE (74.9 Ci/mmol, Perkin Elmer, Boston, Mass.) was added to all wells and incubated at 37° C. for an additional 5 minutes. Non-specific uptake was defined by 20 μM desipramine. The final concentrations of [^3H] NE was 16 nM, respectively. The reaction was terminated by aspiration and washed with ice cold 50 mM Tris (pH 7.4). The plates were left to air dry for roughly 30 min, and MDCK cells were lysed by the addition of 25 μl of 0.25 M NaOH. 100 μl of Microscint-20 were added to each well (Packard, Perkin Elmer, Boston, Mass.), and the plates were counted using a TopCount (Perkin Elmer, Downer's Grove, Ill.) liquid scintillation counter.
% Inhibition of uptake=((mean cpm control wells−each cpm drug well)/(mean cpm control wells−non-specific wells)×100.
IC50 values were calculated using a Prism® nonlinear regression program where % inhibition is plotted versus concentration of inhibitor.

The target of data set [5] is hNET (Homo sapiens, UniProt P23975). The experiment in a line: hNET binding according to Mahaney et al. Conditions: printed in the Protocol B column with footnote.
[6] abbreviates: hNET Function IC50 (nM), protocol not stated.

Dopamine Transporter (hDAT), sequence (Q01959 whole entry): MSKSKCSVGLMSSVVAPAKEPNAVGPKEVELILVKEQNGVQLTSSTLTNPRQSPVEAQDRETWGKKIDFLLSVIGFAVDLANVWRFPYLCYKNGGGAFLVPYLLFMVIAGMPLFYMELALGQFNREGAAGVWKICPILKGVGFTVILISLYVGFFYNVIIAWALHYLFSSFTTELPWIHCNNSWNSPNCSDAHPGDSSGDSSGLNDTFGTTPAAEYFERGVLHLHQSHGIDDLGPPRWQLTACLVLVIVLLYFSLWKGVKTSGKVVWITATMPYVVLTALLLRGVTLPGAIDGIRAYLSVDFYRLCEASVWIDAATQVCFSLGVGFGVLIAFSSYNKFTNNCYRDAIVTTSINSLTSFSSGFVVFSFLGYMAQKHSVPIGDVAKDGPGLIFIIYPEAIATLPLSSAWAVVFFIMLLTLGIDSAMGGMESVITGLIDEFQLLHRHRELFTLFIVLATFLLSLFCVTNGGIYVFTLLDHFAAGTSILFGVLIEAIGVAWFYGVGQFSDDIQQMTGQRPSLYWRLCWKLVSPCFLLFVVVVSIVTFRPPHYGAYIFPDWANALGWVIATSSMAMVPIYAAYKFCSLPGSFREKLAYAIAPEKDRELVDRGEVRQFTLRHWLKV
T1 sequence (P23975 whole entry): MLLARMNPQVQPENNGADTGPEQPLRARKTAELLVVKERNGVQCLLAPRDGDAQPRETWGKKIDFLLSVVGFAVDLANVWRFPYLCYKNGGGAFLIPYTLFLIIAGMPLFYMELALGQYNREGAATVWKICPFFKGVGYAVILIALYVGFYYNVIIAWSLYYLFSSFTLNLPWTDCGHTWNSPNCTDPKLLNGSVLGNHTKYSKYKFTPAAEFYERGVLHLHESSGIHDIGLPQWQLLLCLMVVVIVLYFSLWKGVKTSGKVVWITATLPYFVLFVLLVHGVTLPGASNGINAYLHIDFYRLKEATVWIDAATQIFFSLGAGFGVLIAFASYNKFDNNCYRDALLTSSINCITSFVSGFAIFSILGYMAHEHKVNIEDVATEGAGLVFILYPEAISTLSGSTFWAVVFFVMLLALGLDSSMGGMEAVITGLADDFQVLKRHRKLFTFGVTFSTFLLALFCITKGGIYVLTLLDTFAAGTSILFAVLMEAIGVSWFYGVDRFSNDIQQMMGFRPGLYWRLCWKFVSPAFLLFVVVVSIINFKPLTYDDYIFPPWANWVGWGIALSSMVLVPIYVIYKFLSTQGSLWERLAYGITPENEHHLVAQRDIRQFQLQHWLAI
hNET, sequence (P23975 whole entry): as above

With `CNCCCN1c2ccccc2N(c2c(F)cccc2F)S1(=O)=O`, in data set [1], the “RLM stability t1/2” value is 2.0 min. What is called IC50 is the concentration at which inhibition is half-maximal. `CNCCCCN1c2ccccc2N(c2ccc(F)cc2F)S1(=O)=O`: the half-life at 1 µM in data set [1] came to 11 min. In addition, the IC50 in data set [2] came out at 449 nM; in data set [3] (setting [6]), 8.4 nM. In turn, `NCCCN1c2ccccc2N(c2ccc(Cl)cc2)S1(=O)=O` [Example 2, 3-[3-(4-chlorophenyl)-2,2-dioxido-2,1,3-benzothiadiazol-1(3H)-yl]propan-1-amine] returned an IC50 in data set [4] of 2530 nM. As for `O=S1(=O)N(CCCNC2CC2)c2ccccc2N1c1ccc(Cl)cc1` [Example 3, N-{3-[3-(4-chlorophenyl)-2,2-dioxido-2,1,3-benzothiadiazol-1(3H)-yl]propyl}cyclopropanamine], the midpoint of inhibition in data set [4], the IC50, lay at 4220 nM. As to `CCNCCCN1c2ccccc2N(c2ccc(Cl)cc2)S1(=O)=O` [Example 4, 3-[3-(4-chlorophenyl)-2,2-dioxido-2,1,3-benzothiadiazol-1(3H)-yl]-N-ethylpropan-1-amine], in data set [4], the inhibition at 2 µM was determined as 37%. On to `CNCCCN1c2ccccc2N(c2cccc(F)c2C)S1(=O)=O` [Example 10, 3-[3-(3-fluoro-2-methylphenyl)-2,2-dioxido-2,1,3-benzothiadiazol-1(3H)-yl]-N-methylpropan-1-amine], for which the IC50 in data set [4] is 40.2 nM. The same measure, in the same setting: to `NCCCCN1c2ccccc2N(c2ccc(Cl)cc2)S1(=O)=O` [Example 19, 4-[3-(4-chlorophenyl)-2,2-dioxido-2,1,3-benzothiadiazol-1(3H)-yl]butan-1-amine] belongs 1130 nM; to `CNCCCCN1c2ccccc2N(c2ccc(Cl)cc2)S1(=O)=O` [Example 20, 4-[3-(4-chlorophenyl)-2,2-dioxido-2,1,3-benzothiadiazol-1(3H)-yl]-N-methylbutan-1-amine], 478 nM.

Consider `CN(C)CCCCN1c2ccccc2N(c2ccc(Cl)cc2)S1(=O)=O` [Example 21, 4-[3-(4-chlorophenyl)-2,2-dioxido-2,1,3-benzothiadiazol-1(3H)-yl]-N,N-dimethylbutan-1-amine], for which half-maximal inhibition in data set [4] (IC50) required 5890 nM. As for `CCCCNCCCCN1c2ccccc2N(c2ccc(Cl)cc2)S1(=O)=O` [Example 22, n-butyl-4-[3-(4-chlorophenyl)-2,2-dioxido-2,1,3-benzothiadiazol-1(3H)-yl]butan-1-amine], the inhibition at 2 µM in data set [4] is 27%. Turning to `CCN(C)CCCCN1c2ccccc2N(c2ccc(Cl)cc2)S1(=O)=O` [Example 23, 4-[3-(4-chlorophenyl)-2,2-dioxido-2,1,3-benzothiadiazol-1(3H)-yl]-ethyl-N-methylbutan-1-amine], the inhibition at 2 µM in data set [4] came to 28%.

As to `NCCN1c2ccccc2N(c2ccc(Cl)cc2)S1(=O)=O` [Example 54, 2-[3-(4-chlorophenyl)-2,2-dioxido-2,1,3-benzothiadiazol-1(3H)-yl]ethanamine], in data set [4], the inhibition at 2 µM worked out at 3%. In the case of `CNCCN1c2ccccc2N(c2ccc(Cl)cc2)S1(=O)=O` [Example 55, 2-[3-(4-chlorophenyl)-2,2-dioxido-2,1,3-benzothiadiazol-1(3H)-yl]-N-methylethanamine], the inhibition at 2 µM in data set [4] stood at 15%. In data set [5], `NCCCCCN1c2ccccc2N(c2ccc(F)cc2F)S1(=O)=O` [Example 116, 5-[3-(2,4-difluorophenyl)-2,2-dioxido-2,1,3-benzothiadiazol-1(3H)-yl]pentan-1-amine hydrochloride] came in with an IC50 of 679 nM. Consider `O=S1(=O)N(CCCNCCO)c2ccccc2N1c1ccccc1F` [Example 135, 2-({3-[3-(2-fluorophenyl)-2,2-dioxido-2,1,3-benzothiadiazol-1(3H)-yl]propyl}amino)ethanol], for which the IC50 in data set [3] (NE uptake (Protocol B) IC50 (nM), MDCK-Net6 cells, 3H-NE 16 nM) is 43 nM. For `CNCCCN1c2ccccc2N(c2ccccc2)S1(=O)=O` [drawing 157], the half-life at 1 µM in data set [1] was determined as 2 min. Moreover, the figures for the IC50 in data set [2] and in data set [3] (setting [6]) were 598 nM and 2.6 nM, respectively. Turning to `CNCCCCN1c2ccccc2N(c2ccccc2)S1(=O)=O` [drawing 158], in data set [1], the half-life at 1 µM worked out at 2 min. For the same molecule, the IC50 stood at 211 nM in data set [2] and 0.3 nM in data set [3] (setting [6]).

Turning to `CNCCCCN1c2ccccc2N(c2c(F)cccc2F)S1(=O)=O` [drawing 162], the half-life at 1 µM in data set [1] turned out to be 1 min. The IC50 in data set [2] was found to be 9330 nM; in data set [3] (setting [6]), 2.3 nM. Taken in the same sequence, the figures for `CNCCCN1c2ccccc2N(c2ccc(F)c(F)c2)S1(=O)=O` [drawing 163] were 18 min, 122 nM and 19.8 nM. The corresponding values for `CNCCCN1c2ccccc2N(c2cc(F)ccc2F)S1(=O)=O` [drawing 164] are 2 min, 479 nM and 2.7 nM. The corresponding values for `CNCCCN1c2ccccc2N(c2ccc(F)cc2F)S1(=O)=O` [drawing 165] are 10 min, 366 nM and 11.3 nM. On to `CNCCCCN1c2ccccc2N(c2ccc(F)cc2)S1(=O)=O` [drawing 167], for which the half-life at 1 µM in data set [1] is 19 min. For the same molecule, the IC50 in data set [2] turned out to be 52.8 nM; in data set [3] (setting [6]) it was 46.1 nM. On to `CNCCCN1c2ccccc2N(c2ccccc2C)S1(=O)=O` [drawing 168], for which the half-life at 1 µM in data set [1] was less than 1 min. For the same molecule, the half-maximal inhibitory concentration (IC50) in data set [2] was determined as 276 nM; in data set [3] (setting [6]), 7.06 nM. Taken in the same sequence, the figures for `CNCCCN1c2ccccc2N(c2cccc(OC)c2)S1(=O)=O` [drawing 169] were 2 min, 178 nM and 10.8 nM. The corresponding values for `CCNCCCN1c2ccccc2N(c2ccccc2F)S1(=O)=O` [drawing 170] are 1 min, 665 nM and 2.56 nM.

With “N-{3-[3-(2-fluorophenyl)-2,2-dioxido-2,1,3-benzothiadiazol-1(3H)-yl]butyl}cyclopropanamine [Example 99]”, the IC50 in data set [3] (read-out: NE uptake (Protocol B) IC50, MDCK-Net6 cells, 3H-NE 16 nM) came out at 22 nM.
